# Measurements from patent US9458187B2, “Methods for treatment of inflammatory conditions using S-[4-(3-fleuro-3-methylbutyryloxy)but-2-ynyl]6α, 9α-difluoro-17α-(furan-2-yl) carbonyloxy-11β-hydroxy-16α-methyl-3-oxoandrosta-1,4-diene-17β-carbothioate” (Sun Pharma Advanced Research Company Limited, priority 2013, dated 2016).
# Assays:
# Aldosterone receptor = molecular target: T1, Aldosterone receptor (Rattus norvegicus, UniProt P22199); assay: Steroidal receptor binding screen, aldosterone
# T1 construct: aldosterone (Wistar rat kidney); from tissue; host or cells: Wistar rat kidney
# T1 sequence (P22199 1-981): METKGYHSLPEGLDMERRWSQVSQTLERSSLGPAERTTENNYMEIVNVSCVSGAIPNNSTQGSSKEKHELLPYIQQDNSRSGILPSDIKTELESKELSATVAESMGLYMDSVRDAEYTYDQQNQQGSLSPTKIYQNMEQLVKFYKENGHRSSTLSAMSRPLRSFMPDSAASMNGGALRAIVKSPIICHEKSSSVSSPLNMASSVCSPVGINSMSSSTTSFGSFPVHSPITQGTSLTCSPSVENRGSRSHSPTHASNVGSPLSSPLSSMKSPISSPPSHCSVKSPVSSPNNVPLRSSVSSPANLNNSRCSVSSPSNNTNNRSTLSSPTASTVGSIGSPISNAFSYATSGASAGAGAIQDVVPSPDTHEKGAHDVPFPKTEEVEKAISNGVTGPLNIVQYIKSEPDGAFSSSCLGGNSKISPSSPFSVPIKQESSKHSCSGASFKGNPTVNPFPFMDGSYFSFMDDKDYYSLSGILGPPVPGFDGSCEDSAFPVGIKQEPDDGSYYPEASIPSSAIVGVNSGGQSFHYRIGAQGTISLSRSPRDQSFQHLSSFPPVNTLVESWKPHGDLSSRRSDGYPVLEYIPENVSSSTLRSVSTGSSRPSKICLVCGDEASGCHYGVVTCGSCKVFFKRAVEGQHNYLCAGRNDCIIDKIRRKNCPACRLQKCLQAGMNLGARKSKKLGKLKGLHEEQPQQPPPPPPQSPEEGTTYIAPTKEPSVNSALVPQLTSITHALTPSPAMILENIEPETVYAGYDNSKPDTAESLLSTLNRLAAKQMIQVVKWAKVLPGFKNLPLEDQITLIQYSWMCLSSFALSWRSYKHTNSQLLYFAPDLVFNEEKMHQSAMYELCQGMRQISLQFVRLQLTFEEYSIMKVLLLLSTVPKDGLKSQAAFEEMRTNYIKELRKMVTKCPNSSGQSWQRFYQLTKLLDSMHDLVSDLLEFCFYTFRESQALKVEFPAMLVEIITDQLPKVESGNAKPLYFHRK
# Description: For determination of binding to other related steroidal receptors by compound of the present invention cloned receptors from cells indicated in the parentheses were used: estrogen Erα/Erβ and progesterone (human recombinant insect Sf9), testosterone (human LnCAP) and aldosterone (Wistar rat kidney).
# croton oil ear edema = assay: Croton oil ear edema; assay type: in vivo, Mice (male, CD-1); settings: 1 μg, applied to ear 2 hrs before croton oil
# Protocol: Mice (male, CD-1) were made into different groups. A method similar to one reported in the literature was used. Test compounds were dissolved in pyridine-water-acetone (4:2:14) solution 10 μl of this solution of compound or vehicle solution was applied to the left ear of the mice. The right ear of each mouse was applied simultaneously with 10 μl of pyridine: water: acetone (4:2:14) solution. After 2 hrs of compound or vehicle application, 10 μl of croton oil solution was applied to the left ear of all animals. After 6 hr of croton oil treatment the animals were sacrificed; ears were excised and weighed separately.
# [1] = test system: liver glycogen deposition; assay: Liver glycogen deposition; assay type: in vivo, Male Sprague Dawley rats; settings: 3 mg/kg intratracheal, 2 doses 24 hrs apart, adrenalectomized rats
# Protocol: Male Sprague Dawley rats, weighing 190-220 g were bilaterally adrenalectomized and maintained on 0.9% saline solution throughout the experiment. On day 5th and 6th of adrenalectomy, animals were made into different groups, test compounds prepared in cold saline (sonicated for 30 min) were instilled intratracheally 2 doses @3 mg/kg, 24 hrs apart. At 15 hrs after the last treatment, animals were sacrificed and livers were excised and weighed. The glycogen content of the livers was determined by anthrone method. Briefly, a weighed quantity of liver tissue was homogenized with 5% trichloroacetic acid, supernatant mixed with ethanol and kept overnight for precipitation. The glycogen thus extracted was estimated as glucose generated after acid hydrolysis by addition of anthrone reagent at 620 nm. Glycogen content was expressed as mg/100 g liver.
# cotton pellet granuloma = assay: Cotton pellet granuloma test; assay type: in vivo, SD rats
# Protocol: SD rats were used for assessing anti-inflammatory activity of test compound using cotton pellet granuloma method. Sterilized cotton pellets weighing 20 mg were prepared. Test compounds were dissolved in acetone so as to get the required quantity for each cotton pellet in 500 μl. Different pellets were impregnated with 500 μl of acetone to contain required quantity of test compounds and allowed to dry. Vehicle control pellets were impregnated with 500 μl acetone.
# Rats were made into different groups. Two cotton pellets were surgically implanted into the scapular region of each rat. On sixth day of such implantation, pellets along with granuloma were taken out. Thymus gland was also separated from each animal and weighed. The pellets with granuloma were dried for 20 hrs at 60° C. and weighed. Mean weights of dry granuloma and thymus, body weight gain/100 g body weights were calculated.
# [2] = test system: Sephadex-induced lung edema; assay: Sephadex-induced lung edema; assay type: in vivo, SD rats; settings: Rattus norvegicus; i.t., 24 hrs and 2 hrs prior to Sephadex; read-out: ED50 Lung edema inhibition
# Protocol: (§1) Sephadex® G-200 was prepared in sterile saline (10 mg/ml) and allowed to swell for at least 3 days at room temperature. Test compounds were administered intratracheally at 24 hrs and 2 hrs prior to intratracheal administration of Sephadex® (5 mg/kg) under light ether anesthesia. Vehicle control animals were administered vehicle instead of Sephadex®. At 24 hr after Sephadex® instillation, lung and thymus were excised from individual animals and weighed. Wet weights of lungs and thymus were corrected for 100 g of initial body weight. The percentage increase in lung weight caused by Sephadex® and its inhibitions by the compounds, were calculated. The percentage inhibitions of thymus compared to vehicle control group were also calculated
# [3] = Sephadex-induced lung edema; assay type: in vivo, SD rats; settings: Sprague-Dawley, rat, thymus, other: intratracheal; i.t., 24 hrs and 2 hrs prior to Sephadex; read-out: ED50 Thymus involution
# Protocol: as §1
# [4] = Oral bioavailability and systemic plasma half-life; settings: in vivo
# [5] = test system: intraocular pressure (IOP); assay: Effect on intraocular pressure (IOP); assay type: in vivo, rabbits; settings: 40 μl ophthalmic, 10 instillations daily for 10 days; FIG. 4
# Protocol: IOP measurement was performed 1 hr after instillation of the last dose (results are represented in FIG. 4—Effect of ophthalmic steroids on-IOP in rabbits).
structure (smiles),measurement,setting,value
"C[C@@H]1CC2C3C[C@H](F)C4=CC(=O)C=C[C@]4(C)[C@@]3(F)[C@@H](O)C[C@]2(C)[C@@]1(OC(=O)c1ccco1)C(=O)SCC#CCOC(=O)CC(C)(C)F (stereo partly drawn) [Formula I, S-[4-(3-Fluoro-3-methylbutyryloxy)but-2-ynyl]6α,9α-difluoro-17α-(furan-2-yl)carbonyloxy-11β-hydroxy-16α-methyl-3-oxoandrosta-1,4-diene-17β-carbothioate]",IC50,Aldosterone receptor,328 nM
same,Ki,Aldosterone receptor,256 nM
same,Inhibition of ear edema (%),croton oil ear edema,75.5%
same,Glycogen content,[1],10.68 mg/100 g liver
same,Mean % Inhibition of Granuloma A,cotton pellet granuloma; 100 mcg/pellet,58.13%
same,Thymus wt. (% Decrease) B,cotton pellet granuloma; 100 mcg/pellet,4.67%
same,thymus involution and body weight gain (systemic side effect markers),cotton pellet granuloma; even at 100 mcg per pellet,insignificant
same,ED50,[2],0.094 mg/kg
same,ED50 at 24 h,[3],8.7 mg/kg
same,systemic plasma half-life,[4],short systemic plasma half-life
same,oral bioavailability,[4]; po,low oral bioavailability
same,intraocular pressure (IOP),[5],insignificant (comparable to placebo)
